Key:
FAAH [1] = molecular target: T1, FAAH (Homo sapiens, UniProt O00519); test: In vitro FAAH assay: luciferin amide treated with recombinant FAAH, then R218K luciferase, bioluminescence; type: biochemical; conditions: 50 μM luciferin amide; for effect of ten-fold dilution of FAAH on bioluminescent signal: FAAH vs FAAH 1:10, one hour at room temperature; for increase in bioluminescence signal on addition of FAAH versus buffer: 10 minutes at room temperature, R218K luciferase 3 μg/mL
T1 construct: purchased Cayman Chemical
T1 sequence (O00519 1-579): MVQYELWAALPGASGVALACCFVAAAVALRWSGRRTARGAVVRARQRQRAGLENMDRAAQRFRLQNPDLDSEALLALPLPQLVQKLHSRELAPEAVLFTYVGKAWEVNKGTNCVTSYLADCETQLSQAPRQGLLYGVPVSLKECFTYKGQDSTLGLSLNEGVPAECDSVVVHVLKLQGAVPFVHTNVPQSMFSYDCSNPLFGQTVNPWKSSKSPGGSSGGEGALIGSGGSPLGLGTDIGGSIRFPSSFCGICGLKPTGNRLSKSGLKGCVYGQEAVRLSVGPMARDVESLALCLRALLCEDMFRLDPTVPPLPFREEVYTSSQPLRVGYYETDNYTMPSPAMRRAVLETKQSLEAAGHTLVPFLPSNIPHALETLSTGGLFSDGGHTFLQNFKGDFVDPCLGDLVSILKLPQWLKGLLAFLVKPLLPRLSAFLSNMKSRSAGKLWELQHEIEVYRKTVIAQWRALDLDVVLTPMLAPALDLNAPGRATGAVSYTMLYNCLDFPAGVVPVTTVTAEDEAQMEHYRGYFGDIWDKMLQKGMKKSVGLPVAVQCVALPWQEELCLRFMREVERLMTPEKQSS
Experimental: Recombinant FAAH, FAAH assay buffer, and FAAH inhibitors URB-597, PF-750, and PF-3845 were purchased from Cayman Chemical.
Bioluminescence assays were performed in either a Turner Veritas luminometer or a Xenogen IVIS-100 imaging system. For Veritas experiments, white 96-well plates were used (Costar 3912). For IVIS experiments, black 96-well plates were used (Costar 3915).
(§1) Luciferin amides (50 μM) were treated with FAAH and FAAH buffer (Cayman Chemical) in the presence or absence of 50 μM FAAH inhibitor URB-597 or 50 μM luciferase inhibitor 2-(4′-methoxyphenyl)benzothiazole. After 10 minutes at room temperature, R218K mutant firefly luciferase was added at a concentration of 3 μg/mL and bioluminescence was detected on a Turner Veritas luminometer.
(§2) Four luciferin amides (50 μM), i.e., Compounds 1, 9, 10, and 25, were treated with a buffer alone, a buffer containing FAAH, a buffer containing FAAH+50 μM URB-597 (i.e., a FAAH inhibitor), or a buffer containing FAAH+50 μM luciferase inhibitor 2-(4′-methoxyphenyl)benzothiazole. After 10 minutes at room temperature, R218K luciferase was added at a concentration of 3 μg/mL and bioluminescence was detected on a Turner Veritas.
(§3) Three luciferin amides (50 μM), i.e., Compounds 2, 9, and 25, were treated with a buffer alone, a buffer containing FAAH, a buffer containing FAAH 1:10 (i.e., a ten-fold dilution of FAAH), a buffer containing pig liver esterase (PLE), or a buffer containing PLE 1:10 (i.e., a ten-fold dilution of PLE). After one hour at room temperature, R218K luciferase was added at a concentration of 3 μg/mL and bioluminescence was detected on a Turner Veritas.

pig liver esterase (PLE) = test: Treatment of luciferin amides with pig liver esterase, then R218K luciferase, bioluminescence; type: biochemical; conditions: 50 μM luciferin amide, PLE and PLE 1:10, one hour at room temperature
Experimental: as §3

[2] = molecular target: R218K mutant firefly luciferase (Photinus pyralis, UniProt P08659, R218K); test: In vitro FAAH assay in presence of luciferase inhibitor 2-(4′-methoxyphenyl)benzothiazole; type: biochemical; conditions: 50 μM luciferase inhibitor, 50 μM luciferin amide
Experimental: as §1
as §2, with “Veritas. […] These bioluminescence signals were inhibited by more than 100-fold by treatment with the FAAH inhibitor URB-597.” for “Veritas.”

[3] = test system: FVB mice expressing luciferase in brain tissue; test: In vivo bioluminescence imaging in brains of FVB mice injected with AAV9-luc+ in the striatum
Experimental: (§4) FVB mice were injected with AAV9-luc+ in the brain striatum. Bioluminescence assays were performed approximately nine months after AAV injection. Each luciferin amide was diluted into PBS to the indicated concentration from a 50 mM DMSO stock solution and filtered (0.22 μm) prior to intraperitoneally injection (0.1 mL per mouse). Mice were anesthetized with isoflurane (2% in 1 L/min oxygen) and images acquired on a Xenogen IVIS 100 imaging system and analyzed with Living Image software.
Certain luciferin amides described herein were tested to determine whether they would image well in live mice. For these studies, FVB mice were injected with adeno-associated virus 9 (AAV9)-luciferase constructs into the brain striatum.
Bioluminescence imaging (BLI) in the brain is more challenging than imaging in the rest of the organism, in part because a luciferase substrate (i.e., a luciferin) must cross the blood-brain barrier. Therefore, the ability of a synthetic luciferin (i.e., Compound 9's corresponding luciferin (CycLuc1)) to allow bioluminescence imaging in these mice, as compared to the native firefly luciferase substrate (i.e., D-luciferin) was first tested. Specifically, each substrate was injected intraperitoneally (IP) in PBS at a volume of 0.1 mL, D-luciferin being at a concentration of 100 mM and CycLuc1 being at a concentration of 5 mM. […] CycLuc1 was then injected at a 320-fold lower dose (0.06 mL of 0.5 mM) than D-luciferin.
Specifically, Compound 9 (i.e., CycLuc1 amide) was injected at 0.5 mM in 0.5% DMSO/PBS (0.06 mL).
In this figure, mice in the top row were treated with luciferin amides in the amounts indicated in the figure, and the mice in the bottom row were the same mice that were imaged one day later using a standard dose of D-luciferin.

FAAH [4] = molecular target: T2, FAAH (Mus musculus, UniProt O08914); test: In vivo FAAH inhibition assay with PF-3845; design: species or system mice
T2 construct: metabolized into CycLuc1 by endogenous FAAH activity; from tissue; host or cells: brain (striatum) of live FVB mice expressing AAV9-delivered luciferase
T2 sequence (O08914 1-579): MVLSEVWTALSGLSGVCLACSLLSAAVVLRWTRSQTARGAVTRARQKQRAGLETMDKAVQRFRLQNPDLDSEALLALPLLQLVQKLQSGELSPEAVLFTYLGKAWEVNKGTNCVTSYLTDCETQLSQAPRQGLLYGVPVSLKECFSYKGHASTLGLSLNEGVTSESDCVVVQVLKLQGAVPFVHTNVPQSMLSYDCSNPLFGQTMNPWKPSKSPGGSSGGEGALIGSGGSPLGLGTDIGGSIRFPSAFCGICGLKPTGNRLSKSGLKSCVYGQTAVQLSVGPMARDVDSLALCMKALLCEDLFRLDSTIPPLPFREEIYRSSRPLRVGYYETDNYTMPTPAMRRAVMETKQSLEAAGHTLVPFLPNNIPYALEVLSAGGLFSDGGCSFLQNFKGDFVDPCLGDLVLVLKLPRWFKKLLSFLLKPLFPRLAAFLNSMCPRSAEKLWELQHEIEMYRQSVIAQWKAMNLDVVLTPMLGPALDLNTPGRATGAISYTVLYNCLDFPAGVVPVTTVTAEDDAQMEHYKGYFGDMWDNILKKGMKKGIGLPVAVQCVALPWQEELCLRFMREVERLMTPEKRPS
Experimental: as §4
Mice were injected intraperitoneally with 1 mg/mL of a specific FAAH inhibitor PF-3845 dissolved in 18:1:1 PBS:ethanol:emulphor (0.1 mL), or with an equal volume of 18:1:1 PBS:ethanol:emulphor control vehicle. Thirty minutes after injection, the mice were imaged as described above.
FAAH is highly expressed in most tissues, particularly in the brain. To determine whether the luciferin amides are cleaved exclusively by FAAH in the brain tissue, eight FVB mice expressing AAV9-luciferase in the striatum were divided into two groups: (1) four mice were injected IP with 1 mg/mL of a specific FAAH inhibitor PF-3845 dissolved in 18:1:1 PBS:ethanol:emulphor (0.1 mL), and (2) four mice were treated with an equal volume of 18:1:1 PBS:ethanol:emulphor control vehicle without PF-3845. After 30 minutes, one mouse from each group was IP injected with 5 mM CycLuc1 (i.e., Compound 9's corresponding luciferin) in PBS (0.1 mL), and three were injected with 0.1 mM Compound 5 in 0.2% DMSO/PBS (0.1 mL). The mice were imaged 10 minutes after substrate injection. Mice in the right panel were group (1) (i.e., treated with a FAAH inhibitor) and mice in the left panel were from group (2) (i.e., without being treated with a FAAH inhibitor).

[5] = 0.06 mL of 0.5 mM in 0.5% DMSO/PBS

Sequence of R218K mutant firefly luciferase (P08659 whole entry R218K): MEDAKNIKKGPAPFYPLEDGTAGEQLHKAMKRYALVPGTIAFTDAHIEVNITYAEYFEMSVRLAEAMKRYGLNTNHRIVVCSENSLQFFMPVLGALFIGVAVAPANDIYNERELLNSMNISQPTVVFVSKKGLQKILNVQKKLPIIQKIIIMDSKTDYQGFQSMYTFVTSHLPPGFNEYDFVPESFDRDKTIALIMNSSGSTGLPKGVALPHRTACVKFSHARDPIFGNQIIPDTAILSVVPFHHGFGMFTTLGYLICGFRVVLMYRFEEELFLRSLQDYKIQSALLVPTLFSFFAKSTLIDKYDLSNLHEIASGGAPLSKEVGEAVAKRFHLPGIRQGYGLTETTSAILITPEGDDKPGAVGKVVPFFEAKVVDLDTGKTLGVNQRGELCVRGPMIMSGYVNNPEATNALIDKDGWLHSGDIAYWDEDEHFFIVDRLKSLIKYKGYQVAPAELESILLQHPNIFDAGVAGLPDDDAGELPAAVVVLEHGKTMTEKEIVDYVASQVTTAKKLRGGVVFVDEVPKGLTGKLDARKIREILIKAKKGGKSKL

Row | SMILES | effect of ten-fold dilution of FAAH on bioluminescent signal (FAAH [1]) | bioluminescence signal after treatment with PLE (pig liver esterase (PLE)) | increase in bioluminescence signal on addition of FAAH versus buffer (FAAH [1]) | inhibition of the signal by luciferase inhibitor 2-(4′-methoxyphenyl)benzothiazole [2] | light emission relative to an equivalent dose of CycLuc1 [3, 5] | light emission relative to the 5 mM CycLuc1 dose [3, 5] | brain bioluminescence signal relative to D-luciferin (0.1 mL of 100 mM) ([3]; 0.06 mL of 0.5 mM, 320-fold lower dose) | light emission in brains of live mice (qualitative) ([3]; mouse, in vivo) | total photon flux (FAAH [4]; 5 mM in PBS (0.1 mL) IP, groups (1) PF-3845 and (2) vehicle, 10 minutes after substrate) | change of light output by FAAH inhibitor PF-3845 (group 1 vs group 2) (FAAH [4]; PF-3845 1 mg/mL (0.1 mL) IP 30 minutes before substrate) | persistence of signal relative to D-luciferin ([3]; 0.06 mL of 0.5 mM) | duration of signal ([3]; IP, 0.1 mL of 5 mM) | time of peak signal ([3]; IP, 0.1 mL of 5 mM) | brain bioluminescence signal relative to D-luciferin (0.1 mL of 100 mM) ([3]; IP, 0.1 mL of 5 mM in PBS, 20-fold lower dose)
1 | CN(C)c1ccc2nc(C3=N[C@@H](C(N)=O)CS3)sc2c1 [Compound 2, (S)-2-(6-(dimethylamino)benzo[d]thiazol-2-yl)-4,5-dihydrothiazole-4-carboxamide] | corresponding reduction in the intensity of the bioluminescent signal | failed to elicit a bioluminescence signal | – | – | – | – | – | – | – | – | – | – | – | –
2 | NC(=O)[C@H]1CSC(c2nc3cc4c(cc3s2)NCC4)=N1 [Compound 9, (S)-4,5-dihydro-2-(6,7-dihydro-5H-thiazolo[4,5-f]indol-2-yl)thiazole-4-carboxamide] | corresponding reduction in the intensity of the bioluminescent signal | failed to elicit a bioluminescence signal | 8972 fold | 2.3 fold | exceeded that obtained from an equivalent dose of CycLuc1 itself | nearly equaling to the light emission obtained from the 5 mM CycLuc1 dose | over an order of magnitude greater | – | – | – | – | – | – | –
3 | NC(=O)[C@H]1CSC(c2nc3ccc(O)cc3s2)=N1 [Compound 25, (S)-4,5-dihydro-2-(6-hydroxybenzothiazol-2-yl)thiazole-4-carboxamide] | corresponding reduction in the intensity of the bioluminescent signal | failed to elicit a bioluminescence signal | 269 fold | 14.5 fold | – | – | – | relatively weak light emission | – | – | – | – | – | –
4 | O=C(O)[C@H]1CSC(c2nc3cc4c(cc3s2)NCC4)=N1 [CycLuc1, reference compound] | – | – | – | – | – | – | – | – | 9×10^6 p/s | unchanged | persisted for a longer time | over 2 hours | ~10 min | an order of magnitude higher signal than D-luciferin
